# T1: LmoMenD (2-succinyl-5-enolpyruvyl-6-hydroxy-3-cyclohexene-1-carboxylate synthase, SEPHCHC synthase) (Listeria monocytogenes, UniProt A0A0H3GD77)
# T1 sequence (A0A0H3GD77 1-580): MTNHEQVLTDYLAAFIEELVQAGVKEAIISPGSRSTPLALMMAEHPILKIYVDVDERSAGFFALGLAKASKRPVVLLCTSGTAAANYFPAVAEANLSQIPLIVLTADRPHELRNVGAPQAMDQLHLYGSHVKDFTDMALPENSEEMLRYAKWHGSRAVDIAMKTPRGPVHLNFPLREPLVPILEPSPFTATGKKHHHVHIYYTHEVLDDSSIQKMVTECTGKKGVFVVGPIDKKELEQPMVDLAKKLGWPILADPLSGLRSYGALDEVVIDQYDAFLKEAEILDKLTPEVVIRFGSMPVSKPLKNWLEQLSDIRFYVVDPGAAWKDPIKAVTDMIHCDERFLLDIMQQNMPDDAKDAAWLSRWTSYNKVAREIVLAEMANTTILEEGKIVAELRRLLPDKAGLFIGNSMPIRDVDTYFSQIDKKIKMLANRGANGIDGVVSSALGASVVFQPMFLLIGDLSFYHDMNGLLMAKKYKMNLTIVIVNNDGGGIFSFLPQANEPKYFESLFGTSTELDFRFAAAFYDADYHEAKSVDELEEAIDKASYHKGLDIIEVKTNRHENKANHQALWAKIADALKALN
# Tests used:
# [1] = biological target: T1, LmoMenD (2-succinyl-5-enolpyruvyl-6-hydroxy-3-cyclohexene-1-carboxylate synthase, SEPHCHC synthase); parameters: gene menD
# [2] = biological target: T1, LmoMenD (2-succinyl-5-enolpyruvyl-6-hydroxy-3-cyclohexene-1-carboxylate synthase, SEPHCHC synthase); assay: UV/Vis assay of isochorismate consumption; […] decrease of activity at […]; format: biochemical; parameters: gene menD; full-length LmoMenD, strain 10403s, tag removed by TEV cleavage
# [3] = biological target: the molecule itself; assay: crystal structure; LmoMenD with ThDP and Mg2+ (PDB 9e9b) or with intermediate I after a 2-oxoglutarate soak (PDB 9mnn); space group P6(4)22, one molecule in the asymmetric unit, tetramer by crystallographic symmetry; PISA analysis of assemblies
molecule,measurement,setting,value
O=C(O)CCC(=O)C(=O)O [2-oxoglutarate],"UV/Vis enzyme kinetics (Km, value in supplement); turned over in crystallo to in",[1],"the Km values for ThDP, 2-oxoglutarate and isochorismate and kcat were determined"
"O=C(O)c1cc(O)c2ccccc2c1O [DHNA, 1,4-dihydroxy-2-naphthoic acid]",inhibition at 12.5 µM,[2],34%
"Listeria monocytogenes MenD (2-succinyl-5-enolpyruvyl-6-hydroxy-3-cyclohexene-1-carboxylate (SEPHCHC) synthase) (enzyme, Listeria monocytogenes (strain 10403s), MenD, Listeria monocytogenes strain 10403s, menD gene cloned from genomic DNA with printed primers that run from the start to the stop codon; Untagged protein after rTEV cleavage; The forward primer reads ATG GTG ACA..., so the MV at the start may hold one residue more than the natural protein (surmised from the residue numbering); also called LmoMenD; source: E. coli BL21 (DE3), purified …) GAMVTNHEQVLTDYLAAFIEELVQAGVKEAIISPGSRSTPLALMMAEHPILKIYVDVDERSAGFFALGLAKASKRPVVLLCTSGTAAANYFPAVAEANLSQIPLIVLTADRPHELRNVGAPQAMDQLHLYGSHVKDFTDMALPENSEEMLRYAKWHGSRAVDIAMKTPRGPVHLNFPLREPLVPILEPSPFTATGKKHHHVHIYYTHEVLDDSSIQKMVTECTGKKGVFVVGPIDKKELEQPMVDLAKKLGWPILADPLSGLRSYGALDEVVIDQYDAFLKEAEILDKLTPEVVIRFGSMPVSKPLKNWLEQLSDIRFYVVDPGAAWKDPIKAVTDMIHCDERFLLDIMQQNMPDDAKDAAWLSRWTSYNKVAREIVLAEMANTTILEEGKIVAELRRLLPDKAGLFIGNSMPIRDVDTYFSQIDKKIKMLANRGANGIDGVVSSALGASVVFQPMFLLIGDLSFYHDMNGLLMAKKYKMNLTIVIVNNDGGGIFSFLPQANEPKYFESLFGTSTELDFRFAAAFYDADYHEAKSVDELEEAIDKASYHKGLDIIEVKTNRHENKANHQALWAKIADALKALN",stoichiometry N,[3],4
